# Data from PubChem BioAssay AID1033 (Sanford-Burnham Center for Chemical Genomics, 2008).
# Active and inactive are the calls of the source. The rule behind the calls is not given here.
# Target: Chaperone protein DnaK (Escherichia coli (strain K12)) (UniProt P0A6Y8)
# Assay: binders of DnaK substrate-binding domain, biophysical, NMR, chaperone (AID 1033)
# Conditions: Purified DnaK SBD, NMR ligand binding
# Chaperone protein DnaK (Escherichia coli (strain K12)), sequence (P0A6Y8 whole entry, looked up, the tested form may be a part): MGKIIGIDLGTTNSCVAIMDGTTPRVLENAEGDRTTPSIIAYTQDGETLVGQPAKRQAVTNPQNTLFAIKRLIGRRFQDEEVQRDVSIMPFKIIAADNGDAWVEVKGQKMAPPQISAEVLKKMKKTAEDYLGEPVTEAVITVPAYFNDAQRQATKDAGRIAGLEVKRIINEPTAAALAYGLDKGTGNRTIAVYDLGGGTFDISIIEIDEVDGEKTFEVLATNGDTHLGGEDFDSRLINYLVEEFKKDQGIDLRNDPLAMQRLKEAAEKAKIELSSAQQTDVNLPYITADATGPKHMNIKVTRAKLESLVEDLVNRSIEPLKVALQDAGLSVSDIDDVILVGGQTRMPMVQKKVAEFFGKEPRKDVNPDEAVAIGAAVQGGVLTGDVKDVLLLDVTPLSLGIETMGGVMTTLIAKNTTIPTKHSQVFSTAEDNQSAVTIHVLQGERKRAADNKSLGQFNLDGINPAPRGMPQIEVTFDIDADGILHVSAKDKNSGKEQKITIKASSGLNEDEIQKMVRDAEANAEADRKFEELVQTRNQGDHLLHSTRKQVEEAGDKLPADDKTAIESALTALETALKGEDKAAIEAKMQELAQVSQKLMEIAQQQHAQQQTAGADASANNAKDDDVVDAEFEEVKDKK
row,SMILES,Kd
1,O=c1[nH]cc(N2CCCCC2)c(=O)[nH]1,> 4 mM (inactive)
2,COC(=O)[C@@H]1OC(=O)[C@H]2O[C@@]23[C@@]1(C)CCC1[C@@]2(C)CCC(=O)C(C)(C)C2C[C@@H](OC(C)=O)[C@]13C (stereo not given in full),> 4 mM (inactive)
3,CC(=O)Nc1ccn(-c2ccccc2)n1,> 4 mM (inactive)
4,CCC1(CC)C(=O)NC(=O)N=C1N,> 4 mM (inactive)
5,Cc1occc1C(=O)NCc1ccccn1,> 4 mM (inactive)
6,O=C(Nc1ccccc1)Nc1ccccc1,> 4 mM (inactive)
7,CN1CCC(NC(=O)Cc2c(F)cccc2Cl)CC1,> 4 mM (inactive)
8,COC(=O)/C(C)=C\CC12OC(C)(C)C3CC(C=C4C(=O)c5c(OC)c6c(c(CC=C(C)C)c5OC431)OC(C)(CCC=C(C)C)C=C6)C2=O (stereo not given),> 4 mM (inactive)
9,O=C(Nc1cccc(C(F)(F)F)c1)c1cccnc1,> 4 mM (inactive)
10,NC(=O)CSc1nnc2ccc3ccccc3n12,> 4 mM (inactive)
11,CC(C)CCCC1(C)C=Cc2c(O)c3c(c(CCC(C)C)c2O1)OC12C(CC4CC1C(C)(C)OC2(CCC(C)C(=O)O)C4O)C3=O (stereo not given),> 4 mM (inactive)
12,NC(Cc1c[nH]c2ccccc12)C(=O)O (stereo not given),> 4 mM (inactive)
13,O=C(O)CCCC(=O)Nc1nccs1,> 4 mM (inactive)
14,COC(=O)c1c(OC)cc2c(c1C)Oc1c(Cl)c(OC(C)=O)c(Cl)c(C)c1C(=O)O2,> 4 mM (inactive)
15,O=C(O)CS(=O)(=O)c1ccccc1[N+](=O)[O-],> 4 mM (inactive)
16,CN1CCCn2c1nc1c2c(=O)[nH]c(=O)n1C,> 4 mM (inactive)
17,CCOC(=O)c1cc2ccccc2oc1=O,> 4 mM (inactive)
18,Cc1ccc(-n2cnnn2)c2cccnc12,> 4 mM (inactive)
19,Cc1nnc(NCCO)[nH]c1=O,> 4 mM (inactive)
20,Cc1cc(Oc2ccccc2)nc(N)n1,> 4 mM (inactive)
21,O=C1CCCN1C(=O)c1ccc(F)cc1,> 4 mM (inactive)
22,Cc1nc(-c2cnccn2)sc1C(=O)O,> 4 mM (inactive)
23,CC[C@@H]1[C@@H](O)N2C3C[C@H]1C1C(O)[C@]4(C[C@@H]12)c1ccccc1N(C)[C@@H]34 (stereo not given in full),> 4 mM (inactive)
24,Cc1ccc(SCc2nc(-c3ccncc3)no2)cc1,> 4 mM (inactive)

row,SMILES,Kd
1,Cc1cc(C)n(S(=O)(=O)c2cc(C)c(C)cc2C)n1,> 4 mM (inactive)
2,c1ccc(Cn2cccc2)nc1,> 4 mM (inactive)
3,c1ccc2c(c1)CN1CCCC1=N2,> 4 mM (inactive)
4,c1ccc(Cc2nn3c(-c4ccncc4)nnc3s2)cc1,> 4 mM (inactive)
5,CCOC(=O)c1cc(C)[nH]n1,> 4 mM (inactive)
6,O=c1[nH]cc(NCc2ccccc2)c(=O)[nH]1,> 4 mM (inactive)
7,NC(=O)c1cn(-c2ccccc2)nc1-c1cccnc1,> 4 mM (inactive)
8,CNC(=O)C(=O)Nc1ccc(F)cc1,> 4 mM (inactive)
9,C[C@@H]1OC(O[C@H]2C(O[C@H]3CC[C@@]4(C)C(CC[C@]5(C)C4CC=C4C6CC(C)(C)CC[C@]6(C(=O)O)CC[C@]45C)[C@]3(C)CO)OC[C@H](O)[C@@H]2O)[C@H](O)[C@H](O)[C@H]1O (stereo not given in full),> 4 mM (inactive)
10,CC(=O)Oc1cc2c(C(C)=O)coc2c2ccccc12,> 4 mM (inactive)
11,COc1cc(CNC(=O)CCCC/C=C/C(C)C)ccc1O,> 4 mM (inactive)
12,NC(=O)c1ccccc1NC(=O)C1CCCO1 (stereo not given),> 4 mM (inactive)
13,Cn1nnc2cc(C(=O)N3CCSCC3)ccc21,> 4 mM (inactive)
14,CSc1nc(C)cc(-n2ccc(=O)[nH]c2=O)n1,> 4 mM (inactive)
15,Nc1cc(=O)[nH]c(=S)n1CCc1ccccc1,> 4 mM (inactive)
16,O=C1COc2cc(O)ccc21,> 4 mM (inactive)
17,COCC(=O)Nc1ccc(F)cc1F,> 4 mM (inactive)
18,Cc1noc(C)c1CSc1nc2ccccc2[nH]1,> 4 mM (inactive)
19,O=C(O)c1ccc(-c2cnco2)cc1,> 4 mM (inactive)
20,Cc1nc(NCc2ccco2)nc2c1C(=O)CC(C)C2 (stereo not given),> 4 mM (inactive)
21,O=C(Nc1ncccn1)c1cccc(F)c1,> 4 mM (inactive)
22,Nc1ccc2c(c1)S(=O)(=O)C=C2,> 4 mM (inactive)
23,Cc1cccc(C)c1N1C(=O)CCC1=O,> 4 mM (inactive)
24,CC(=O)Nc1ccc2c(C)cc(=O)[nH]c2c1,> 4 mM (inactive)

row,SMILES,Kd
1,COCC(=O)OCn1nnc2ccccc2c1=O,> 4 mM (inactive)
2,CC(=O)c1nnc2cc(C)nn2c1C,> 4 mM (inactive)
3,Cc1cccc(CSc2nncc(=O)[nH]2)c1,> 4 mM (inactive)
4,NC(=O)Cn1nc2c3c(cccc3c1=O)-c1ccccc1-2,> 4 mM (inactive)
5,CN1CCC(N(C)Cc2cccnc2)CC1,> 4 mM (inactive)
6,O=c1nc(N2CCCCC2)nc2n1CCO2,> 4 mM (inactive)
7,O=C(Cc1c(F)cccc1Cl)Nc1ccon1,> 4 mM (inactive)
8,Cc1cc(C)nc(/N=C(\N)N2CCc3ccccc32)n1,> 4 mM (inactive)
9,Cc1cccc(-c2nnc(-c3ccc(N)cc3)o2)c1,> 4 mM (inactive)
10,Cc1cc(=O)n(CC(C)C)c(O)c1C#N,> 4 mM (inactive)
11,Cc1nc2ccc(C(=O)N3CCSCC3)cc2s1,> 4 mM (inactive)
12,Oc1ccc(C(=S)N2CCCCC2)cc1Cl,> 4 mM (inactive)
13,O=C(C1CCC(C(=O)N2CCCC2)CC1)N1CCCC1 (stereo not given),> 4 mM (inactive)
14,CN1CCN(Cc2cccnc2)CC1,> 4 mM (inactive)
15,CC(=O)CNc1cc(CNC(C)=O)c(C)cc1C,> 4 mM (inactive)
16,Nc1oncc1-c1ccccn1,> 4 mM (inactive)
17,O=C1O[C@H](C(O)CO)C(O)=C1O (stereo not given in full),> 4 mM (inactive)
18,NC1CN2CCC1CC2 (stereo not given),> 4 mM (inactive)
19,O=C1NC2NC(=O)N(c3ccccc3)C2N1 (stereo not given),> 4 mM (inactive)
20,O=c1ccc2cc(O[C@@H]3O[C@H](CO)[C@@H](O)[C@H](O)[C@H]3O)c(O)cc2o1,> 4 mM (inactive)
21,O=C(Nc1ccccc1)Nc1ccccn1,> 4 mM (inactive)
22,O=C1C=CC(=O)N1c1ccccc1O,> 4 mM (inactive)
23,Cn1ccnc1C(O)c1ccccc1 (stereo not given),> 4 mM (inactive)
24,O=C(NC1=NCCS1)c1ccc(Cl)s1,> 4 mM (inactive)

row,SMILES,Kd
1,NC(=O)C1CCN(CN2C(=O)c3ccccc3C2=O)CC1,> 4 mM (inactive)
2,O=C1CCNc2ccccc2N1,> 4 mM (inactive)
3,c1cncc(Nc2nc(-c3cccnc3)cs2)c1,> 4 mM (inactive)
4,CC(=O)CC(=O)N1C(O)CC[N+]1(C)C (stereo not given),> 4 mM (inactive)
5,NC(=S)CN1CCCC1=O,> 4 mM (inactive)
6,CCP(=O)(CC)c1cccc(C)c1,> 4 mM (inactive)
7,Cc1cc(C)n(CCC(=O)O)n1,> 4 mM (inactive)
8,NC(=O)C1CCN(S(=O)(=O)c2ccccc2)CC1,> 4 mM (inactive)
9,Cc1ccc(N2NC(=O)CC2=O)cc1C,> 4 mM (inactive)
10,O=C(Nc1ccon1)c1sc2cc(F)ccc2c1Cl,> 4 mM (inactive)
11,CN(c1ccc(C(=O)N2CCCCC2)cc1)S(C)(=O)=O,> 4 mM (inactive)
12,Cc1ccc(C)n1NC(=O)c1ccco1,> 4 mM (inactive)
13,CC(=O)O[C@H]1CC[C@@]2(C)C(=CCC3C2CC[C@@]2(C)C3CC[C@@H]2C(C)CCCC(C)C)C1 (stereo not given in full),> 4 mM (inactive)
14,CNC(=O)Nc1cccc(C(F)(F)F)c1,> 4 mM (inactive)
15,CS(=O)(=O)N1CCN(C(=O)c2ccccc2)C1,> 4 mM (inactive)
16,Nc1ccc2[nH]ccc2c1,> 4 mM (inactive)
17,C=C[C@@](C)(O)CCC1C(=C)C[C@H](OC(C)=O)C2C(C)(C)CCCC12C (stereo not given in full),> 4 mM (inactive)
18,COC(=O)Nc1nc2c(s1)CCCC2,> 4 mM (inactive)
19,CC1(NC(=O)NCc2ccccc2)CCS(=O)(=O)C1 (stereo not given),> 4 mM (inactive)
20,c1ccc(-c2csc3ncn4nnnc4c23)cc1,> 4 mM (inactive)
21,CC(=O)OC1CCC23CC1(C)CCC2C(C)(C)CC3OC(C)=O (stereo not given),> 4 mM (inactive)
22,Cn1cc(Cl)c(C(=O)Nc2ccc(F)cc2F)n1,> 4 mM (inactive)
23,OC[C@H]1O[C@@H](Oc2ccc(O)cc2)[C@H](O)[C@@H](O)[C@@H]1O,> 4 mM (inactive)
24,CCOC(=O)c1c(C)cc(O)c(C)c1O,> 4 mM (inactive)

row,SMILES,Kd
1,COc1cc(S(=O)(=O)Nc2cccnc2)ccc1F,> 4 mM (inactive)
2,CS(=O)(=O)N/N=C/c1cccs1,> 4 mM (inactive)
3,Cn1nc(C(=O)NC2CCCCC2)c2ccccc2c1=O,> 4 mM (inactive)
4,O=c1[nH]cc(S(=O)(=O)N2CCc3ccccc32)c(=O)[nH]1,> 4 mM (inactive)
5,NC(=O)Nc1cccc(C(F)(F)F)c1,> 4 mM (inactive)
6,COC(=O)NNc1ncnc(N)c1[N+](=O)[O-],> 4 mM (inactive)
7,O=C(Nc1ccc2[nH]ccc2c1)c1cccs1,< 0.2 mM
8,Oc1ccc(C2SCCS2)cc1,> 4 mM (inactive)
9,CCCn1c(S(=O)(=O)O)nc2ccccc21,> 4 mM (inactive)
10,Cc1cc(C)n(S(=O)(=O)c2ccc(C(C)(C)C)cc2)n1,> 4 mM (inactive)
11,Nc1ccc(-c2cnco2)cc1,> 4 mM (inactive)
12,CS(=O)(=O)CCCCN=C=S,> 4 mM (inactive)
13,CC1=CC(C)C(C(=O)O)C(C(=O)N2CCN(C)CC2)C1 (stereo not given),> 4 mM (inactive)
14,COc1ccc(-c2cn[nH]c2N)c(OC)c1,> 4 mM (inactive)
15,COc1cc(-c2coc3cc(OC)c(OC)c(OC)c3c2=O)cc(OC)c1OC,> 4 mM (inactive)
16,CCN1CCN(c2ncnc3c2nnn3C)CC1,> 4 mM (inactive)
17,O=C(O)CCC(=O)c1cccc2ccccc12,> 4 mM (inactive)
18,CC(C)=CCc1c(O)cc(C)oc1=O,> 4 mM (inactive)
19,CC(=O)Nc1ccc(-c2nc(C)c(C(C)=O)n2O)cc1,> 4 mM (inactive)
20,COC(=O)C(O)c1ccccc1 (stereo not given),> 4 mM (inactive)
21,Cc1cc(=O)[nH]c2ccccc12,> 4 mM (inactive)
22,CC1SC(=NC(=O)c2ccncc2)NC1=O (stereo not given),> 4 mM (inactive)
23,Nc1cc(F)nc(F)n1,> 4 mM (inactive)
24,COc1ccc2c(=O)c(CC(=O)O)coc2c1,> 4 mM (inactive)
